Measurements as given in patent US20240016819A1, “CANNABINOIDS FOR USE IN THE TREATMENT OF EPILEPSY” (GW RESEARCH LIMITED, priority 2020, published 2024).

System: seizures in patients with TSC
Experiment: Mean total seizures over time in TSC patients after administration of CBD (FIG. 2)
Assay type: in vivo, human
Details: starting dose 5 mg/kg/day, 2 week titration period
Experimental: Patients with TSC were administered a highly purified extract of cannabidiol (CBD) obtained from a cannabis plant described herein. Similar to Example 1, patients with a TSC diagnosis were administered a starting dose of 5 mg/kg/day CBD in addition to their baseline anti-epileptic drug (AED) regimen or placebo.
The daily dose was increased by 5 mg/kg increments until intolerance occurred or a maximum dose of 25 mg/kg/day was achieved. The starting dose increase from 5 mg/kg/day to 10 mg/kg/day occurred 7 days after administration of the first dose of CBD. […] The titration period occurred over two weeks. For patients in need of further seizure reduction, the dosage of 20 mg/kg/day was increased up to 25 mg/kg/day after one week.
All patients were taking at least two concomitant anti-epileptic drugs. These included clobazam; levetiracetam; topiramate; stiripentol; phenobarbital; lacsamide; valproic acid; zonisamide. The average number of concomitant antiepileptic drugs being taken was 2.7. The majority took either clobazam and/or valproic acid.
Prior to treatment with CBD, patients recorded the number of seizures they experienced. This established the baseline levels. During the course of treatment, patients recorded the number of seizures experienced each day.

C=C(C)[C@@H]1CCC(C)=C[C@H]1c1c(O)cc(CCCCC)cc1O [CBD Extract, Cannabidiol]
mean total seizures over time: starts decreasing during the titration period
